Assay results as given in US9422557B2, “Methods and compositions for weed control” (Monsanto Technology LLC, priority 2011, dated 2016).

How the values were obtained:
[1] = test system: Glyphosate-sensitive Palmer amaranth (A. palmeri R-22) plants; assay: Follow-up test of individual ACCase oligonucleotides with herbicide 24 hours later; growth effects; format: in vivo, Amaranthus palmeri; settings: 4 nmol oligonucleotide per plant, four plants; herbicide applied 24 hours after the oligonucleotide treatment
Experimental: (§1) Glyphosate-sensitive Palmer amaranth (A. palmeri R-22) plants where grown in the greenhouse (30/20 C day/night T; 14 hour photoperiod) in 4 inch square pots containing Sun Gro® Redi-Earth and 3.5 kg/cubic meter Osmocote® 14-14-14 fertilizer. Palmer amaranth plants at 5 to 10 cm in height were treated with a pool of eight 8 short (21-22mer) single-strand antisense oligo DNA polynucleotides (ssDNA) targeting ACCase shown in Table 2 at 16 nmol, formulated in 10 millimolar sodium phosphate buffer (pH 6.8) containing 2% ammonium sulfate and 0.5% Silwet L-77. Plants were treated manually by pipetting 10 μL of polynucleotide solution on four fully expanded mature leaves, for a total of 40 microliters of solution per plant. Twenty-four and forty-eight hours later, the plants were treated with clethodim (SelectMax®, 0.97 lb ai per gallon; ACCase inhibitor) at 272 g ai/ha, crop oil concentrate (COC) at 1% was added to the herbicide treatments. Four replications of each treatment were conducted. Plant height was determined just before ssDNA treatment and at intervals upto twelve days after herbicide treatments to determine effect of the oligonucleotide and herbicide treatments.
An additional test was conducted to determine which of the ACCase oligonucleotides was responsible for the result. […]

[2] = test system: Glyphosate-sensitive Palmer amaranth (A. palmeri R-22) plants; assay: Topical treatment of Palmer amaranth with pooled ssDNA ACCase oligonucleotides followed by clethodim; plant height; format: in vivo, Amaranthus palmeri; settings: clethodim (SelectMax) 272 g ai/ha with 1% COC; ssDNA pool at 16 nmol applied 24 and 48 hours before herbicide where used; height followed up to twelve days after herbicide; four replications; FIG. 1
Experimental: as §1

## oligo6: single-strand antisense DNA oligo targeting ACCase, GCACCACGAGGATCACAAGAA (DNA, backbone and methylation of C not given here; listed as Amaranthus palmeri)
[1]
  reduction of plant growth relative to untreated plants (average): 40%

## CCSC(C)CC1CC(=O)C(C(CC)=NOC/C=C/Cl)=C(O)C1 (centres unmarked) [clethodim, 2-[1-[[[(2E)-3-chloro-2-propen-1-yl]oxy]imino]propyl]-5-[2-(ethylthio)propyl]-3-hydroxy-2-cyclohexen-1-one]
[2]
  reduction in plant height relative to the untreated control: 0%
